For data set [1] the following is noted: within six hours, at a half life of about 60 minutes. The text has this:
It should be kept in mind that nicotine is a toxic compound. Therefore, only the minimum amount required for relief from smoking addiction or migraine symptoms should be used. […] Fortunately, nicotine is metabolized fairly rapidly.

For data set [2], the system named is adult. Particulars: absorbed in one dose; cited from earlier work.
The conditions of data set [3]: people with average metabolic capacity for the compound; cited from earlier work.

Take `CN1CCCC1c1cccnc1` (stereo not drawn) [nicotine]: the “amount remaining of one mg of nicotine absorbed in the body” value in data set [1] was “about 0.031 mg”. Moreover, the lethal dose result in data set [2] is reported as “Sixty”. Also, the half life entry in data set [3] was “about 60 minutes”.
